Source: ChEMBL document CHEMBL3507680, “University of Dundee, Gates Library screen for HepG2 cell viability”

Assay: Human HepG2 cell viability assay in 384 well format
Type: toxicity, cell-based
Parameters: dose 125 nL, time 70.5 hour; cytotoxicity at 70.5 h: concentration not given beside the values
Conditions: HepG2 cells, read-out: Inhibition

Row | Structure (SMILES) | cytotoxicity at 70.5 h [%]
1 | Cc1csc(N(C)C(=O)C2CC(=O)N(CCc3ccccc3)C2)n1 (stereo not given) | 4.67
2 | Cc1csc(N(C)C(=O)C2CC(=O)N(c3ccccc3F)C2)n1 (stereo not given) | -0.144
3 | COCCn1cc(NC(=O)NC(C)c2ccc(Cl)s2)cn1 (stereo not given) | -3.34
4 | COc1ncccc1NC(=O)N1CCOCC1C (stereo not given) | 4.15
5 | CCOc1cccc2c1OCC(C(=O)NC(C)Cn1cccn1)=C2 (stereo not given) | 16.6
6 | COc1ccc(Oc2ncccc2NC(=O)N2CCOCC2C)cc1 (stereo not given) | -1.92
7 | COc1ccc(Oc2ncccc2NC(=O)N2CC[C@H](O)C2)cc1 | -1.8
8 | Cc1cc(C(=O)N2CCCC2CN2CCCC2)no1 (stereo not given) | 12.9
9 | COC(=O)C(CNC(=O)Nc1cn[nH]c1)Cc1cccc(C)c1 (stereo not given) | -0.383
10 | Cc1ccc(CN(CC(=O)NC2CCOCC2)c2ccc(F)cc2)o1 | 1.79
11 | CC(Nc1nc2c(cnn2C)c(=O)[nH]1)c1ccccn1 (stereo not given) | 13
12 | COc1ccc(NC(=O)N2CCC(c3noc(C)n3)CC2)cc1C | 1.97
13 | Cc1cc(NC(N)=O)ccc1OCC(F)(F)F | -2.1
14 | CC(Cn1cncn1)NC(=O)NCC(C)(C)c1ccc(F)cc1 (stereo not given) | 1.47
15 | CCn1nc2c(cc1=O)CN(Cc1nc(-c3ccoc3)no1)CC2 | 19.1
16 | CN(C(=O)c1ccncc1)c1ccccc1S(C)(=O)=O | -2.3
17 | COc1ccc(NC(=O)N2CCC(c3nnc[nH]3)CC2)cc1C | -3.69
18 | CCOc1ncccc1NC(=O)N1CCOCC1C (stereo not given) | -5.63
19 | Cc1cc(CN(C)C(=O)NC(C)Cc2ccco2)no1 (stereo not given) | -3.4
20 | CN(C)CCN(Cc1cccnc1)C(=O)c1ccn(-c2ccccc2)n1 | -3.54
21 | CCc1noc(C(C)N(C)Cc2cc(Br)ccc2OC)n1 (stereo not given) | -15.2
22 | CCCC(NC(=O)c1ccc(C)cc1C)c1nnn[nH]1 (stereo not given) | 0.32

Row | Structure (SMILES) | cytotoxicity at 70.5 h [%]
23 | CCCC(NC(=O)c1cc(C)c(F)cc1F)c1nnn[nH]1 (stereo not given) | -2.37
24 | CCC1CCCCN1CCNC(=O)N1CCN(Cc2ccon2)CC1 (stereo not given) | -2.53
25 | CN1CCC(CCNC(=O)N2CCN(Cc3ccon3)CC2)CC1 | 14.9
26 | COc1ccc(CNC(C)c2ccc(Cl)cc2)c(OC)c1OC (stereo not given) | 13.3
27 | CCCC(NC(=O)c1cc(C)ccc1O)c1nnn[nH]1 (stereo not given) | -10.4
28 | CCC(C)Sc1nncn1-c1ccc(OC)nc1 (stereo not given) | 5.95
29 | COc1ccc(CNC(C)c2ccc(Cl)c(Cl)c2)c(OC)c1OC (stereo not given) | 5.68
30 | CCOCCCNC(=O)Cc1cccc(F)c1 | 1.71
31 | O=C(NCCNS(=O)(=O)c1ccc2c(c1)CCC2)c1ccccc1 | -1.96
32 | Cc1ccc(-c2cnc(CCC(=O)NCCN3CCOCC3)o2)cc1C | 2.52
33 | O=C(C1CC(=O)N(c2ccccc2Br)C1)N1CCCCCC1 (stereo not given) | 11.2
34 | CC(C)(C)OC(=O)NC(C)(C)c1noc(CSc2nncs2)n1 | 25.7
35 | CCS(=O)(=O)c1ccc(N2CCC(NC(=O)CC3CCCC3)CC2)cc1 | -9.91
36 | Cn1c(C(=O)N2CCC(C3OCCO3)CC2)c(Cl)c2ccccc21 | -9.46
37 | COc1cc(CNC(=O)C(C)SC)cc(Br)c1OC (stereo not given) | -8.14
38 | COc1ccc(NC(=O)Cc2c(C)nc3c(c2C)c(=O)[nH]n3C)cn1 | -4.63
39 | CCC(C)C(=O)NCc1cc(Br)c(OC)c(OC)c1 (stereo not given) | -6.76
40 | COc1ncccc1NC(=O)N1CCC(C(=O)NC(C)C)CC1 | -5.13
41 | COc1ncccc1NC(=O)NCC1CC1 | -3.58
42 | CCN(CC)C(=O)C1CCN(C(=O)Nc2cccnc2OC)CC1 | 34.4
43 | Cc1nc2c(c(C)c1CC(=O)Nc1ccnn1C(C)C)c(=O)[nH]n2C | 2.43
44 | CCOC(=O)COc1cccc(NC(=O)C2COCCO2)c1 (stereo not given) | -3.53

Row | Structure (SMILES) | cytotoxicity at 70.5 h [%]
45 | COc1cccc(NC(=O)Cc2c(C)nc3c(c2C)c(=O)[nH]n3C)c1 | -6.7
46 | Cc1cc(C)n(CC2CCCCN2CC(=O)Nc2nnc(C)s2)n1 (stereo not given) | -2.39
47 | CCS(=O)(=O)c1ccc(N2CCC(N)CC2)cc1 | -1.97
48 | CCS(=O)(=O)c1ccc(N2CCC(NC(=O)NC(C)CO)CC2)cc1 (stereo not given) | -1.95
49 | CC(=O)NCCNC(=O)NCCCc1cccc(F)c1 | -5.39
50 | O=S(=O)(Cc1cccc(F)c1)NCC(O)Cc1ccccc1 (stereo not given) | -10.7
51 | COCCCS(=O)(=O)N1CCN(c2cccc(O)c2)CC1 | -6.99
52 | CCc1nc(NS(=O)(=O)c2cc(C)c(F)cc2Cl)no1 | 25.9
53 | CCc1nc(NS(=O)(=O)c2ccc(F)cc2Cl)no1 | -8.4
54 | COc1ncccc1NC(=O)N1CCCC(CNC(=O)OC(C)(C)C)C1 (stereo not given) | -6.55
55 | c1nc(N2CCCC2Cn2cncn2)c2ccsc2n1 (stereo not given) | 30.4
56 | COCCN1CCN(CCS(=O)(=O)c2cccc(OC)c2)CC1 | -2.71
57 | CCCC1CCCN(C(=O)Nc2cccnc2OC)CC1 (stereo not given) | 19.4
58 | Cc1cc(NC(=O)NC2CCCc3c2cnn3CCO)n(C)n1 (stereo not given) | -1.75
59 | Cc1nnc(NC(=O)NC2CCCc3c2cnn3CCO)s1 (stereo not given) | -6.14
60 | N#Cc1ccc(OCC(O)CN2CCN(c3nccs3)CC2)cc1 (stereo not given) | 13.7
61 | Cc1ccc(C)c(S(=O)(=O)NCCC(=O)NCc2ccoc2)c1 | -11.7
62 | O=C(CCNS(=O)(=O)c1ccc(F)cc1)NCc1ccoc1 | -9.41
63 | Cc1cc(C)c(S(=O)(=O)NCCC(=O)NCc2ccoc2)c(C)c1 | 3.02
64 | O=C(CCNS(=O)(=O)c1ccc(Cl)cc1)NCc1ccoc1 | -5.84
65 | Cc1ccc(CNC(=O)NC2CCCc3c2cnn3CCO)cn1 (stereo not given) | -11.1
66 | CC(C)CCC(=O)Nc1ccc2oc(=O)n(CCN(C)C)c2c1 | -1.73

Row | Structure (SMILES) | cytotoxicity at 70.5 h [%]
67 | CN(Cc1ccncc1)C(=O)CCNS(=O)(=O)c1cccnc1 | 2.92
68 | CC(C)NC(=O)CCNC(=O)c1cnc(Cc2ccc(F)cc2)s1 | -4.85
69 | COC(=O)CCNC(=O)c1cnc(Cc2ccc(F)cc2)s1 | -2.52
70 | Cc1ccc(C(=O)N(CCC#N)Cc2ccccn2)cc1C | 8.47
71 | Cc1cccc(OCC(O)CN2CCN(c3nccs3)CC2)c1 (stereo not given) | -3.61
72 | COCc1ccc(C(=O)N(CCC#N)Cc2ccccn2)cc1 | -3.02
73 | Cc1nc(COc2ccc(CNCCn3cccn3)cc2)cs1 | 4.56
74 | CC(O)CN1CCN(C(=O)c2cnn(-c3ccccc3Cl)c2)CC1 (stereo not given) | -2.98
75 | Cc1cnn(CCNCc2ccc(OCc3cscn3)cc2)c1 | -6.84
76 | CN(C)CCCNC(=O)c1cnc(Cc2ccc(F)cc2)s1 | -6.21
77 | COc1c(C)cnc(CSc2nnc(N3CCCC3)s2)c1C | 8.14
78 | O=C(O)c1ccc(S(=O)(=O)Nc2c(F)cccc2-n2cccn2)cc1 | -1.35
79 | CCN(CC1CN(Cc2cccc(C#N)c2)CCO1)c1cccnn1 (stereo not given) | 0.605
80 | CC(C)OCCC(=O)NCCc1csc(N2CCCC2)n1 | 5.53
81 | COc1c(C)cnc(CSc2nnc(N)s2)c1C | -3.12
82 | Cc1cnn(CCNCc2ccc(OCc3ccccn3)cc2)c1 | 2.45
83 | COc1cc(C(=O)N(CCC#N)Cc2ccccn2)ccc1C | 2.05
84 | Cc1ccc(C2COCCN2C(=O)c2ccc(C#N)cc2)o1 (stereo not given) | -7.82
85 | COCc1ccc(C(=O)N2CCOCC2c2ccc(C)o2)cc1 (stereo not given) | -0.476
